Data on three compounds can be found in patent publication US10696651B2, “Heterocyclic compound” (Takeda Pharmaceutical Company Limited, priority 2016, dated 2020).

Molecules are shown by their SMILES.

In assay [1] the test system is ATF4 expression in CCRF-CEM tumor. Nature of the assay: In vivo ATF4 expression suppression assay (Western blot of CCRF-CEM xenograft tumor) in the presence of L-asparaginase. Conditions: compound 10 mg/kg oral 8 hr before tumor removal, L-asparaginase 1000 U/kg s.c. 32 hr and 8 hr before, CCRF-CEM xenograft in SCID mouse. The source says: One million human acute lymphoblastic leukemia cell lines CCRF-CEM obtained from ATCC (American Type Culture Collection) were suspended in Matrigel solution (Corning) and implanted subcutaneously into 6-week-old female SCID mouse (CLEA Japan, Inc.) by injection. The mice in which the tumor engrafted to a size of about 200-1000 mm^3 tumor volume after transplantation were selected and 3 mice per group were used for the experiment. L-asparaginase (Kyowa Hakko Kogyo Co., Ltd.) was subcutaneously administered at a dose of 1000 U/kg 32 hr and 8 hr before tumor removal. A 0.5% methylcellulose suspension of the compound was orally administered at a dose of 10 mg/kg 8 hr before tumor removal. After tumor removal, protein was extracted using Lysing Matrix I tube (MP Biomedicals) containing a protein extract (10% glycerol, 1% sodium dodecyl sulfate, 62.5 mM Tris-HCl [pH 7.5], protease and phosphatase inhibitors [Complete mini and PhosSTOP, Sigma-Aldrich Co. LLC.]) and subjected to Western blot.
Protein extract solution was subjected to protein quantification with BCA Protein Assay Kit (Thermo Scientific), electrophoresed on 7.5-15% SDS-PAGE gel (DRC), and protein in the gel was transferred to PVDF membrane. The membrane was blocked with Starting Block T20 (PBS) Blocking Buffer (Thermo Scientific). […] Thereafter, chemiluminescence was performed using ImmunoStar LD (Wako Pure Chemical Industries, Ltd.), and luminescence intensity was measured by LAS-3000 image analyzer (Fuji Film Co., Ltd.). Furthermore, the expression level of ATF4 was digitized by quantifying the luminescence intensity using Multi Gauge Ver. […]
Based on the ATF4 expression level of the control group orally administered with 0.5% methylcellulose suspension free of Example compound and the treatment group orally administered with Example compound suspension, the ATF4 expression inhibition ratio (%) of the test compound at a compound dose 10 mg/kg was calculated by the following formula and the results thereof are shown in Table 6. […]
For orientation: Immunoblotting shows a protein as a band on a membrane.

Assay [2] has as its system osteosarcoma cell line U-2-OS. Nature of the assay: In vitro cell proliferation inhibition assay (CellTiter-Glo, low amino acid media). It counts as cell-based. Conditions: McCoy's 5A low amino acid media; for inhibitory rate: 72 hr. A digest of the protocol:
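Cells seeded at 1000 per well in McCoy's 5A low amino acid medium (25% amino acid content), then exposed to compound for 72 h at 37° C., 5% CO2. ATP measured by CellTiter-Glo luminescence. Inhibition (%) at 100 nM calculated relative to pre-treatment and untreated control wells.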
On the technique in general: ATP-based viability assays read luminescence as a measure of living cells.

Assay [3] deals with human acute lymphoblastic leukemia cells CCRF-CEM. Nature of the assay: In vivo tumor proliferation inhibitory assay with combined use of asparaginase (CCRF-CEM xenograft). Conditions: CCRF-CEM xenograft in SCID mouse. An excerpt: One million human acute lymphoblastic leukemia cells CCRF-CEM obtained from ATCC (American Type Culture Collection) were suspended in Matrigel solution (Corning) and implanted subcutaneously into 6-week-old female SCID mouse (CLEA Japan, Inc.) by injection. The mice in which the tumor engrafted to a size of about 200 mm^3 tumor volume after transplantation were selected and 5 mice per group were used for the experiment. A 0.5% methylcellulose suspension of the compound was orally administered twice per day for 9 days. Each compound was administered twice per day and the dose was 10 mg/kg for Example 14 and Example 7, and 6 mg/kg for Example 4. L-asparaginase (Kyowa Hakko Kogyo Co., Ltd.) was subcutaneously administered once per day at a dose of 1000 U/kg. Tumor diameter was measured one day before start of the administration and day 9 of the administration, and the tumor volume was calculated by the formula 1. tumor volume=major axis×minor axis×minor axis×(½) Formula 1
Tumor proliferation inhibitory rate (%) was calculated by the formula 2. tumor proliferation inhibitory rate (%)=(1−(T9−T0)/(C9−C0))×100 Formula 2 T9: average tumor volume of test drug administration group on day 9 of administration, T0: average tumor volume of test drug administration group one day before start of administration, C9: average tumor volume of control group on day 9 of administration, C0: average tumor volume of control group one day before start of administration

For assay [4], the target named is T1, human GCN2 full-length protein (Homo sapiens, UniProt Q9P2K8).
T1 construct: purchased Carna Biosciences, Inc
Nature of the assay: GCN2 enzyme inhibition assay (LanthaScreen TR-FRET). It counts as biochemical. Conditions: GCN2 enzyme inhibitory activity at compound concentration of 3 μM; for inhibitory rate: 3 µM. A digest of the protocol: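 Full-length human GCN2 was preincubated with compound for 1 hr at room temperature, then reacted for 1 hr with substrate and ATP added from a 570 μM ATP / 390 nM substrate solution (stock concentrations). Phosphorylation was detected by TR-FRET with a terbium-labelled anti-eIF2alpha antibody after 1 hr, with enzyme-free wells as control.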

T1 sequence (Q9P2K8 whole entry): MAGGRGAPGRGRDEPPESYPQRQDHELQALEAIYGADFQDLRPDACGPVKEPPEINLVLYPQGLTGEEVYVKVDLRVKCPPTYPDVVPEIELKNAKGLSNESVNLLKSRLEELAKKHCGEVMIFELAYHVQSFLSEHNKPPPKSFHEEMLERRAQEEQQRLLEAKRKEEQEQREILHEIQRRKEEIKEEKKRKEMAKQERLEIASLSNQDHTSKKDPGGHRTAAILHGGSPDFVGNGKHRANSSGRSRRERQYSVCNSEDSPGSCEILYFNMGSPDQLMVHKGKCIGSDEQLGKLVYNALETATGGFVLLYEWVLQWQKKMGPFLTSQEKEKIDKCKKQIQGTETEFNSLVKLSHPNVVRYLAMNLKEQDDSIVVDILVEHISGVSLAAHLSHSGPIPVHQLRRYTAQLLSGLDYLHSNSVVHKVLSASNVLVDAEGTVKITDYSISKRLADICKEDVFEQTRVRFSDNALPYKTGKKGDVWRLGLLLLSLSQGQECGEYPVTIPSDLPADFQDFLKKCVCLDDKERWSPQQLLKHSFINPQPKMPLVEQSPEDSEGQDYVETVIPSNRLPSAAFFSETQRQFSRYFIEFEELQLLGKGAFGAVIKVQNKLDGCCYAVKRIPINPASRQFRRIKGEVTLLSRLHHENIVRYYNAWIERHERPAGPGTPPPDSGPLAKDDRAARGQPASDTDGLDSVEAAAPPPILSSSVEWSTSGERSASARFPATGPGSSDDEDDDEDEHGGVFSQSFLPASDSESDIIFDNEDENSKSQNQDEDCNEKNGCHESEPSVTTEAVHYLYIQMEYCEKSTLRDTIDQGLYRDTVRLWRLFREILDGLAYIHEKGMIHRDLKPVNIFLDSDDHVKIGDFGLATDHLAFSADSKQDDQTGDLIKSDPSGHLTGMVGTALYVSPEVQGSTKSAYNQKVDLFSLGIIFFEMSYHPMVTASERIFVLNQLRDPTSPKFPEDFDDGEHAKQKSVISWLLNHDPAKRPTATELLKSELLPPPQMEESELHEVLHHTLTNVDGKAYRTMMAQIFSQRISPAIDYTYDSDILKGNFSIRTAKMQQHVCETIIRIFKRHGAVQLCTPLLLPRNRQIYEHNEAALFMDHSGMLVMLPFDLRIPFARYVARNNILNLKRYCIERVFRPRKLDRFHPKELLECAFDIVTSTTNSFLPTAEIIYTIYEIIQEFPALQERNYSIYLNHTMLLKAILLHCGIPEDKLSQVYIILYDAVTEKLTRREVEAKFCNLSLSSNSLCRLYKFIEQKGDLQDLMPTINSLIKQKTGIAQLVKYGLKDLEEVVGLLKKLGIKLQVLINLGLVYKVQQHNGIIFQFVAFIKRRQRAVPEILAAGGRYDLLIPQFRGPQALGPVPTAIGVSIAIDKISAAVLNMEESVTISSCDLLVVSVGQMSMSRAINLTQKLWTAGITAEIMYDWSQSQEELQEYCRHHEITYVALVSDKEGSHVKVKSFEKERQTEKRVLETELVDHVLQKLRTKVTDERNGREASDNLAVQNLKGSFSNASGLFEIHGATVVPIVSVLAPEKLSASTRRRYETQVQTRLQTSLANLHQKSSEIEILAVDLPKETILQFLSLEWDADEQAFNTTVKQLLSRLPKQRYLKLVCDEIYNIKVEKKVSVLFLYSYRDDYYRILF

In the case of `O=S(=O)(Nc1ccc(F)c(C#Cc2cnc3[nH]ncc3c2)c1F)c1cc(Cl)ccc1Cl` [Example 14, 2,5-dichloro-N-(2,4-difluoro-3-(1H-pyrazolo[3,4-b]pyridin-5-ylethynyl)phenyl)benzenesulfonamide], in assay [1], the “in vivo ATF4 expression inhibition ratio (%)” value is recorded as 63%. Besides, the inhibitory rate in assay [2] (Table 4-1) is on record as 42%; in assay [4] (Table 3-1), 98%. The “in vivo tumor proliferation inhibitory rate (%), GCN2 inhibitor” value in assay [3] (GCN2 inhibitor alone, 10 mg/kg oral twice per day for 9 days) came out at 1%. The “in vivo tumor proliferation inhibitory rate (%), combined use” value in assay [3] (compound 10 mg/kg oral twice per day for 9 days combined with L-asparaginase 1000 U/kg s.c. once per day) worked out at 64%.
With `COc1c(CO)cc(Cl)cc1S(=O)(=O)Nc1ccc(F)c(C#Cc2cnc(N)nn2)c1F` [Example 130, N-(3-((3-amino-1,2,4-triazin-6-yl)ethynyl)-2,4-difluorophenyl)-5-chloro-3-(hydroxymethyl)-2-methoxybenzenesulfonamide], the inhibition at 0.1 µM in assay [2] (Homo sapiens, U2OS, 72 h, cell proliferation inhibitory rate, Table 4-2) was 68%. Further, in assay [4] (Table 3-2, read-out: inhibitory rate), the inhibition at 3 µM was 99%.
Consider `O=S(=O)(Nc1ccc(F)c(C#Cc2cnc(N[C@H]3CC[C@H](O)CC3)nc2)c1F)c1cc(Cl)cc2c1OCC2O` (stereo partly drawn) [Example 191, 5-chloro-N-(2,4-difluoro-3-((2-((trans-4-hydroxycyclohexyl)amino)pyrimidin-5-yl)ethynyl)phenyl)-3-hydroxy-2,3-dihydro-1-benzofuran-7-sulfonamide], for which the inhibitory rate in assay [2] (Table 4-2) is reported as 74%; in assay [4] (Table 3-2), 99%.
